Where no end group is shown, it is not given here.
Columns and labels:
FAC binding constant = settings: at 25° C.
Outline: (§1)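 At 25° C, FAC gave the affinity constants of the lectins PhoSL, SRL, NSL and LSL for a range of sugar chains.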

[1] = FAC binding constant (Table 5 entry); settings: Table 5: sugar chain having no fucose; at 25° C.
Outline: as §1

[2] = sugar chain having fucose other than α1→6 fucose

PhoSL: fucose α1→6 specific lectin that can be extracted from Pholiota squarrosa, SEQ ID No. 1 (APVPVTKLVCDGDTYKCTAYLDFGDGRWVAQWDTNVFHTG; not fully specified; ends and bridges not checked)
Binding constant for sugar chain No. 728 (FAC binding constant; Table 3: sugar chain having fucose other than α1→6 fucose): <1000 M⁻¹ | Binding constant for sugar chain No. 419 (FAC binding constant; [2]): <1000 M⁻¹ | Binding constant for sugar chain No. 420 (FAC binding constant; [2]): <1000 M⁻¹ | Binding constant for sugar chain No. 718 (FAC binding constant; [2]): <1000 M⁻¹ | Binding constant for sugar chain No. 719 (FAC binding constant; [2]): <1000 M⁻¹ | Binding constant for sugar chain No. 720 (FAC binding constant; [2]): <1000 M⁻¹ | Binding constant for sugar chain No. 721 (FAC binding constant; [2]): <1000 M⁻¹ | Binding constant for sugar chain No. 722 (FAC binding constant; [2]): <1000 M⁻¹ | Binding constant for sugar chain No. 723 (FAC binding constant; [2]): <1000 M⁻¹ | Binding constant for sugar chain No. 726 (FAC binding constant; [2]): <1000 M⁻¹ | Binding constant for sugar chain No. 727 (FAC binding constant; [2]): <1000 M⁻¹ | Binding constant for sugar chain No. 729 (FAC binding constant; [2]): <1000 M⁻¹ | Binding constant for sugar chain No. 730 (FAC binding constant; [2]): <1000 M⁻¹ | Binding constant for sugar chain No. 731 (FAC binding constant; [2]): <1000 M⁻¹ | Binding constant for sugar chain No. 739 (FAC binding constant; [2]): <1000 M⁻¹ | Binding constant for sugar chain No. 909 (FAC binding constant; [2]): <1000 M⁻¹ | Binding constant for sugar chain No. 910 (FAC binding constant; [2]): <1000 M⁻¹ | Binding constant for sugar chain No. 931 (FAC binding constant; [2]): <1000 M⁻¹ | Binding constant for sugar chain No. 932 (FAC binding constant; [2]): <1000 M⁻¹ | Binding constant for sugar chain No. 933 (FAC binding constant; [2]): <1000 M⁻¹ | Binding constant for sugar chain No. 001 (FAC binding constant; sugar chain having no fucose): <1000 M⁻¹ | Binding constant for sugar chain No. 002 (FAC binding constant; sugar chain having no fucose): <1000 M⁻¹ | Binding constant for sugar chain No. 003 (FAC binding constant; sugar chain having no fucose): <1000 M⁻¹ | Binding constant for sugar chain No. 004 (FAC binding constant; sugar chain having no fucose): <1000 M⁻¹ | Binding constant for sugar chain No. 005 (FAC binding constant; sugar chain having no fucose): <1000 M⁻¹ | Binding constant for sugar chain No. 006 (FAC binding constant; sugar chain having no fucose): <1000 M⁻¹ | Binding constant for sugar chain No. 007 (FAC binding constant; sugar chain having no fucose): <1000 M⁻¹ | Binding constant for sugar chain No. 008 (FAC binding constant; sugar chain having no fucose): <1000 M⁻¹ | Binding constant for sugar chain No. 009 (FAC binding constant; sugar chain having no fucose): <1000 M⁻¹ | Binding constant for sugar chain No. 010 (FAC binding constant; sugar chain having no fucose): <1000 M⁻¹ | Binding constant for sugar chain No. 011 (FAC binding constant; sugar chain having no fucose): <1000 M⁻¹ | Binding constant for sugar chain No. 012 (FAC binding constant; sugar chain having no fucose): <1000 M⁻¹ | Binding constant for sugar chain No. 013 (FAC binding constant; sugar chain having no fucose): <1000 M⁻¹ | Binding constant for sugar chain No. 014 (FAC binding constant; sugar chain having no fucose): <1000 M⁻¹ | Binding constant for sugar chain No. 101 (FAC binding constant; sugar chain having no fucose): <1000 M⁻¹ | Binding constant for sugar chain No. 103 (FAC binding constant; sugar chain having no fucose): <1000 M⁻¹ | Binding constant for sugar chain No. 104 (FAC binding constant; sugar chain having no fucose): <1000 M⁻¹ | Binding constant for sugar chain No. 105 (FAC binding constant; sugar chain having no fucose): <1000 M⁻¹ | Binding constant for sugar chain No. 107 (FAC binding constant; sugar chain having no fucose): <1000 M⁻¹ | Binding constant for sugar chain No. 108 (FAC binding constant; sugar chain having no fucose): <1000 M⁻¹ | Binding constant for sugar chain No. 301 (FAC binding constant; sugar chain having no fucose): <1000 M⁻¹ | Binding constant for sugar chain No. 304 (FAC binding constant; sugar chain having no fucose): <1000 M⁻¹ | Binding constant for sugar chain No. 305 (FAC binding constant; sugar chain having no fucose): <1000 M⁻¹ | Binding constant for sugar chain No. 307 (FAC binding constant; sugar chain having no fucose): <1000 M⁻¹ | Binding constant for sugar chain No. 308 (FAC binding constant; sugar chain having no fucose): <1000 M⁻¹ | Binding constant for sugar chain No. 313 (FAC binding constant; sugar chain having no fucose): <1000 M⁻¹ | Binding constant for sugar chain No. 314 (FAC binding constant; sugar chain having no fucose): <1000 M⁻¹ | Binding constant for sugar chain No. 323 (FAC binding constant; sugar chain having no fucose): <1000 M⁻¹ | Binding constant for sugar chain No. 501 (FAC binding constant; sugar chain having no fucose): <1000 M⁻¹ | Binding constant for sugar chain No. 502 (FAC binding constant; sugar chain having no fucose): <1000 M⁻¹ | Binding constant for sugar chain No. 503 (FAC binding constant; sugar chain having no fucose): <1000 M⁻¹ | Binding constant for sugar chain No. 504 (FAC binding constant; sugar chain having no fucose): <1000 M⁻¹ | Binding constant for sugar chain No. 701 (FAC binding constant; sugar chain having no fucose): <1000 M⁻¹ | Binding constant for sugar chain No. 702 (FAC binding constant; sugar chain having no fucose): <1000 M⁻¹ | Binding constant for sugar chain No. 703 (FAC binding constant; sugar chain having no fucose): <1000 M⁻¹ | Binding constant for sugar chain No. 704 (FAC binding constant; sugar chain having no fucose): <1000 M⁻¹ | Binding constant for sugar chain No. 705 (FAC binding constant; sugar chain having no fucose): <1000 M⁻¹ | Binding constant for sugar chain No. 706 (FAC binding constant; sugar chain having no fucose): <1000 M⁻¹ | Binding constant for sugar chain No. 707 (FAC binding constant; sugar chain having no fucose): <1000 M⁻¹ | Binding constant for sugar chain No. 708 (FAC binding constant; sugar chain having no fucose): <1000 M⁻¹ | Binding constant for sugar chain No. 709 (FAC binding constant; sugar chain having no fucose): <1000 M⁻¹ | Binding constant for sugar chain No. 710 (FAC binding constant; sugar chain having no fucose): <1000 M⁻¹ | Binding constant for sugar chain No. 711 (FAC binding constant; sugar chain having no fucose): <1000 M⁻¹ | Binding constant for sugar chain No. 712 (FAC binding constant; sugar chain having no fucose): <1000 M⁻¹ | Binding constant for sugar chain No. 713 (FAC binding constant; sugar chain having no fucose): <1000 M⁻¹ | Binding constant for sugar chain No. 715 (FAC binding constant; sugar chain having no fucose): <1000 M⁻¹ | Binding constant for sugar chain No. 716 (FAC binding constant; sugar chain having no fucose): <1000 M⁻¹ | Binding constant for sugar chain No. 717 (FAC binding constant; sugar chain having no fucose): <1000 M⁻¹ | Binding constant for sugar chain No. 724 (FAC binding constant; sugar chain having no fucose): <1000 M⁻¹ | Binding constant for sugar chain No. 725 (FAC binding constant; sugar chain having no fucose): <1000 M⁻¹ | Binding constant for sugar chain No. 732 (FAC binding constant; sugar chain having no fucose): <1000 M⁻¹ | Binding constant for sugar chain No. 733 (FAC binding constant; sugar chain having no fucose): <1000 M⁻¹ | Binding constant for sugar chain No. 734 (FAC binding constant; sugar chain having no fucose): <1000 M⁻¹ | Binding constant for sugar chain No. 735 (FAC binding constant; sugar chain having no fucose): <1000 M⁻¹ | Binding constant for sugar chain No. 736 (FAC binding constant; sugar chain having no fucose): <1000 M⁻¹ | Binding constant for sugar chain No. 737 (FAC binding constant; sugar chain having no fucose): <1000 M⁻¹ | Binding constant for sugar chain No. 738 (FAC binding constant; sugar chain having no fucose): <1000 M⁻¹ | Binding constant for sugar chain No. 901 (FAC binding constant; sugar chain having no fucose): <1000 M⁻¹ | Binding constant for sugar chain No. 902 (FAC binding constant; sugar chain having no fucose): <1000 M⁻¹ | Binding constant for sugar chain No. 903 (FAC binding constant; sugar chain having no fucose): <1000 M⁻¹ | Binding constant for sugar chain No. 905 (FAC binding constant; sugar chain having no fucose): <1000 M⁻¹ | Binding constant for sugar chain No. 906 (FAC binding constant; sugar chain having no fucose): <1000 M⁻¹ | Binding constant for sugar chain No. 907 (FAC binding constant; sugar chain having no fucose): <1000 M⁻¹ | Binding constant for sugar chain No. 015 (FAC binding constant; sugar chain having α1→6 fucose): 500000 M⁻¹ | Binding constant for sugar chain No. 201 (FAC binding constant; sugar chain having α1→6 fucose): 460000 M⁻¹ | Binding constant for sugar chain No. 202 (FAC binding constant; sugar chain having α1→6 fucose): 400000 M⁻¹ | Binding constant for sugar chain No. 203 (FAC binding constant; sugar chain having α1→6 fucose): 330000 M⁻¹ | Binding constant for sugar chain No. 401 (FAC binding constant; sugar chain having α1→6 fucose): 350000 M⁻¹ | Binding constant for sugar chain No. 402 (FAC binding constant; sugar chain having α1→6 fucose): 200000 M⁻¹ | Binding constant for sugar chain No. 403 (FAC binding constant; sugar chain having α1→6 fucose): 340000 M⁻¹ | Binding constant for sugar chain No. 404 (FAC binding constant; sugar chain having α1→6 fucose): 390000 M⁻¹ | Binding constant for sugar chain No. 405 (FAC binding constant; sugar chain having α1→6 fucose): 320000 M⁻¹ | Binding constant for sugar chain No. 406 (FAC binding constant; sugar chain having α1→6 fucose): 220000 M⁻¹ | Binding constant for sugar chain No. 407 (FAC binding constant; sugar chain having α1→6 fucose): 280000 M⁻¹ | Binding constant for sugar chain No. 410 (FAC binding constant; sugar chain having α1→6 fucose): 220000 M⁻¹ | Binding constant for sugar chain No. 413 (FAC binding constant; sugar chain having α1→6 fucose): 280000 M⁻¹ | Binding constant for sugar chain No. 418 (FAC binding constant; sugar chain having α1→6 fucose): 220000 M⁻¹ | Binding constant for sugar chain No. 601 (FAC binding constant; sugar chain having α1→6 fucose): 240000 M⁻¹ | Binding constant for sugar chain No. 602 (FAC binding constant; sugar chain having α1→6 fucose): 120000 M⁻¹ | Binding constant for sugar chain No. 728 [1]: <1000 M⁻¹
